According to patent US20240374738A1, “BIFUNCTIONAL COMPOUND CAPABLE OF DEGRADING RECEPTOR TYROSINE KINASE AND APPLICATION THEREOF” (TAIBIDI PHARMACEUTICAL TECHNOLOGY (SHIJIAZHUANG) CO., LTD., priority 2023, published 2024):

Legend:
Assay type in all cases: cell-based
DDR1 = DDR1 (Homo sapiens, UniProt Q08345); assay: Degradation of DDR1 in tumor cell MKN45 (Western blot); design: The degradation activity of the compounds against DDR1 in the MKN45 cell line; endogenous in cells; host or cells: MKN45; conditions: MKN-45, maximum degradation percentage, MKN45 cells, 24 hours
Sequence of DDR1 (Q08345 19-913): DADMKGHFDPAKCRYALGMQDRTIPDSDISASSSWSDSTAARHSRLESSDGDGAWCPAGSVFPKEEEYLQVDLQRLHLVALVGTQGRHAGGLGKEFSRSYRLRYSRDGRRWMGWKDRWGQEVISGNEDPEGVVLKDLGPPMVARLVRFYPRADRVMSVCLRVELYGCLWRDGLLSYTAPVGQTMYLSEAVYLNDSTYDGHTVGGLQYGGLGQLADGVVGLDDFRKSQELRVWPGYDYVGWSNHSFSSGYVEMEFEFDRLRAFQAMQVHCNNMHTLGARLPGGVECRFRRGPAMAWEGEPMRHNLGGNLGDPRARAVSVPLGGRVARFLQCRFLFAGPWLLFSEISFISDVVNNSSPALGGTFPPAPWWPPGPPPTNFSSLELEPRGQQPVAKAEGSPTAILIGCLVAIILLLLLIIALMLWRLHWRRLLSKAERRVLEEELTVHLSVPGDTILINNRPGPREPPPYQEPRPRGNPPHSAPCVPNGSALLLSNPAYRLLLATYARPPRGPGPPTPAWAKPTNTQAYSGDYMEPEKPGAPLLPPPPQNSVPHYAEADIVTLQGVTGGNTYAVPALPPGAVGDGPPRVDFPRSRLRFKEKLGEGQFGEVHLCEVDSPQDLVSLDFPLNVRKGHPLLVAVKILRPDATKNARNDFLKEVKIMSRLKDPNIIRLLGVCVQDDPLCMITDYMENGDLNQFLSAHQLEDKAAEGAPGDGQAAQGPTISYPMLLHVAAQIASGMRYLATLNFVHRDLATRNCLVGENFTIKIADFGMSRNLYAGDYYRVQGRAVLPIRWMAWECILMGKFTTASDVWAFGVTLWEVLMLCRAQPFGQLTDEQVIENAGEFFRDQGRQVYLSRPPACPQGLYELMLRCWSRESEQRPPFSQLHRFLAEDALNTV
Experimental: Western blot experiment: Take gastric cancer cells (MKN45) and inoculate them into a 6-well plate at a concentration of […], adding 2 ml to each well and incubating for 24 hours.
The next day, observe the cells under a microscope to confirm their status. Prepare compounds, weigh a certain amount of the series compounds or reference drug cabozantinib from this patent, first prepare a high concentration mother liquor with pure DMSO, and use gradient dilution method to prepare compound concentrations of 2 mM, 200 μM, 100 μM, 20 μM, 2 μM, 200 nM, and 0 nM. The final concentration of DMSO is 0.5%. Shake to thoroughly mix. Add 10 μl of solution to each well. After incubation for 24 hours, remove the cells and use a pipette to aspirate the suspended cells into a 1.5 ml centrifuge tube. Centrifuge at 5000 rpm for 10 minutes to precipitate the cells. Carefully remove the cell precipitate from the culture medium, add 1 ml of PBS and shake slightly. After repeated cleaning for 3 times, dry the residue. Add 150 μl of RIPA lysate pre mixed with 1% PMSF, blow to allow the lysate to fully contact the cells, and incubate on ice for 10 minutes. Centrifuge at 12000 rpm for 10 minutes, extract the supernatant, use the BCA protein quantification kit to determine and homogenize the sample loading.
Mix BCA-A in a 50:1 ratio Prepare working solution with B solution, dilute the sample by 5 times, then pipette 20 μl onto a 96 well ELISA plate. Add 200 μl of pre mixed BCA working solution and incubate at 37° C. for 20 minutes. Measure the A562 nm absorbance value using an ELISA reader and substitute it into the protein standard curve formula to obtain the sample concentration. After calculating the required volume for loading […] of sample, divide the sample into 1.5 ml centrifuge tubes. Add 10 μl of sample buffer to each tube and mix well. Heat in a 95° C. metal bath for 5 minutes to denature the protein.
Take 4-20% gradient pre adhesive and fix it on the adhesive rack. Add electrophoresis solution to the slot and remove the comb, Marker and protein samples were loaded, and after 30 minutes of electrophoresis at 80V, the voltage was adjusted to 120V for electrophoresis, The marker band stops electrophoresis at the forefront of the gel. Take out the adhesive block and cut it to the appropriate size, The PVDF membrane was cut and activated in methanol, and after activation, the PVDF membrane was equilibrated in a membrane transfer equilibrium solution for 1 minute. Using sponge pads The sequence of PVDF film, adhesive, and sponge pad is placed in the splint and placed in the eBlot equipment for rapid wet rotation. Remove the membrane and seal it in 5% skim milk powder dissolved in 1×TBST for 1 hour. Cut the membrane according to the molecular weight of the target protein and internal reference protein, and place it in primary antibody diluted with 1×TBST. Shake overnight at 4° C.
The next day, transfer the band to 1×TBST for 3 washes, then add a specific dilution of the secondary antibody and shake it for 1.5 hours. Transfer the band again to 1×TBST for 3 washes, prepare ECL color solution, place the membrane in the imaging system, cover the surface with ECL color solution, and take photos of the membrane using the imaging system.
Using the SHST analysis system to analyze the results, measure the grayscale values of each band of the target protein and internal reference protein. Normalize the grayscale values of the target protein/corresponding lane GAPDH grayscale values, and perform quantitative analysis according to the protein amount=experimental group grayscale value/blank control group grayscale value.
The activity of the compound of the present invention in degrading DDR in tumor cell line MKN45 was measured. […]

MKN45 = assay: Growth inhibition of gastric cancer cells MKN45 (CCK-8); conditions: Homo sapiens, MKN-45, half inhibitory concentration, 72 hours
Experimental: (§1) Inoculate gastric cancer cells (SNU5 or MKN45) into a 96 well plate at a concentration of […], with 100 μl added to each well. Incubate for 30 minutes. Observe the cell status under a microscope. Prepare compounds, weigh a certain amount of the series compounds or reference drug cabozantinib of this patent, first prepare a high concentration mother liquor with pure DMSO, and use gradient dilution method to prepare a concentration of 200 μM, 60 μM, 20 μM, 6 μM, 2 μM, 600 nM, 200 nM, 0 nM drug solution, shake to make it fully mixed. The control group was prepared with cabozantinib using the same solvent and method.
(§2) After preparation, add 1 μl of drug solution to each well of the 96 well plate, and then add 100 μl of culture medium. Repeat each dose three times. Gently shake to allow the cells and medication to come into full contact and incubate in the incubator for 72 hours. 72 hours later, remove and color with CCK-8 reagent kit. Add 20 μl of CCK-8 reagent to each well, gently shake well, and incubate in the incubator for 1 hour. After 1 hour, remove and measure the absorbance of each well using an enzyme-linked immunosorbent assay (ELISA) reader at a wavelength of 450 nm.
(§3) According to the formula: Cell growth inhibition rate=[1−(absorbance of experimental group absorbance of culture medium control group)/(absorbance of blank control group−absorbance of culture medium control group)]×100%. It can be concluded that the compound has the ability to inhibit the growth of gastric cancer cells at the current dose and time.
(§4) Draw a graph based on the gradient of concentration and use GraphPad Prism 9 software (GraphPad Software, La Jolla, CA) to calculate the maximum inhibitory concentration (IC50) at 50%.
(§5) Referring to steps 1 and 2 of this embodiment, the inhibitory effect of the compound of the present invention on the growth of cancer cells and the degradation effect of target proteins were measured, and the following results were obtained (see Table 2 below).
(§6) The growth inhibitory effects of the compound of the present invention on tumor cell lines MKN45 and SNU5 were measured. The activity is expressed as half inhibitory concentration (C50). The results are shown in Table 2 below; When the half inhibitory concentration is less than or equal to 100 nM, the compound activity is labeled as “++++”; When the half inhibitory concentration is greater than 100 nM and less than 500 nM, the compound activity is labeled as […] and less than 1000 nM, the compound activity is labeled as “++”; When the half inhibitory concentration is greater than 1000 nM and less than 3000 nM, the compound activity is marked as “+”; When the half inhibitory concentration is greater than 3000 nM, the compound activity is marked as […]

SNU5 = assay: Growth inhibition of gastric cancer cells SNU5 (CCK-8); conditions: Homo sapiens, SNU-5, half inhibitory concentration, 72 hours
Experimental: as §1, §2, §3, §4, §5, §6

Row | Structure (SMILES) | Dmax (DDR1) [%] | IC50 (MKN45) [nM] | IC50 (SNU5) [nM]
1 | COc1cc2c(Oc3ccc(NC(=O)C4(C(=O)Nc5ccc(F)cc5)CC4)cc3)ccnc2cc1N1CCC(CN2CCC(C(=O)N3C[C@H](O)C[C@H]3C(=O)NCc3ccc(-c4scnc4C)cc3)CC2)CC1 [TPD5421] | 75 to 85 | 100 to 500 | 100 to 500
2 | COc1cc2c(Oc3ccc(NC(=O)C4(C(=O)Nc5ccc(F)cc5)CC4)cc3)ccnc2cc1N1CCC(CN2C3CC2CN(CCC(=O)Nc2cc4c(cn2)C(=O)N(C2CCC(=O)NC2=O)C4)C3)CC1 (stereo not drawn) [TPD12112] | 65 to 75 | ≤ 100 | ≤ 100
3 | Cc1nc(CCOC2CCN(CCC(=O)Nc3cccc4c3CN(C3CCC(=O)NC3=O)C4=O)CC2)cc(Nc2ncc(C(=O)Nc3c(C)cccc3Cl)s2)n1 (stereo not drawn) [TPD10050] | 75 to 85 | 500 to 1000 | 100 to 500
4 | COc1cc2c(Oc3ccc(NC(=O)C4(C(=O)Nc5ccc(F)cc5)CC4)cc3)ccnc2cc1COCCN1CCC(OCCCNc2ccc3c(c2)C(=O)N(C2CCC(=O)NC2=O)C3=O)CC1 (stereo not drawn) [TPD5315] | > 85 | 100 to 500 | 100 to 500
5 | COc1cc2c(Oc3ccc(NC(=O)C4(C(=O)Nc5ccc(F)cc5)CC4)cc3)ccnc2cc1N1CCC(CN2C[C@H]3C[C@@H]2CN3CCNc2cc3c(cn2)C(=O)N(C2CCC(=O)NC2=O)C3)CC1 (stereo partly drawn) [TPD12097] | 65 to 75 | ≤ 100 | ≤ 100
6 | O=C1CCC(N2Cc3c(NC(=O)CCN4CC5CC(C4)N5CC4CCN(c5cc6nccc(Oc7ccc(NC(=O)C8(C(=O)Nc9ccc(F)cc9)CC8)cc7)c6cc5OC(F)(F)F)CC4)cccc3C2=O)C(=O)N1 (stereo not drawn) [TPD12149] | 75 to 85 | ≤ 100 | ≤ 100
7 | COc1cc2c(Oc3ccc(NC(=O)C4(C(=O)Nc5ccc(F)cc5)CC4)cc3)ccnc2cc1NCC(=O)N[C@H](C(=O)N1C[C@H](O)C[C@H]1C(=O)NCc1ccc(-c2scnc2C)cc1)C(C)(C)C [TPD5417] | 65 to 75 | 500 to 1000 | 1000 to 3000
8 | O=C1CCC(N2Cc3cc(NC(=O)CCN4CC5CC(C4)N5CC4CCN(c5cc6nccc(Oc7ccc(NC(=O)C8(C(=O)Nc9ccc(F)cc9)CC8)cc7)c6cc5OC(F)(F)F)CC4)ncc3C2=O)C(=O)N1 (stereo not drawn) [TPD12148] | 65 to 75 | ≤ 100 | ≤ 100
9 | COc1cc2c(Oc3ccc(NC(=O)C4(C(=O)Nc5ccc(F)cc5)CC4)cc3)ccnc2cc1N1CCC(CN2CCN(CCNc3nccc4c3CN(C3CCC(=O)NC3=O)C4=O)C(=O)C2)CC1 (stereo not drawn) [TPD12068] | 65 to 75 | ≤ 100 | ≤ 100
10 | C[C@@H](Oc1cc(-c2cnn(C3CCN(CCC(=O)Nc4cccc5c4CN(C4CCC(=O)NC4=O)C5=O)CC3)c2)cnc1N)c1c(Cl)ccc(F)c1Cl (stereo partly drawn) [TPD10040] | 75 to 85 | ≤ 100 | ≤ 100
11 | COc1cc2c(Oc3ccc(NC(=O)C4(C(=O)Nc5ccc(F)cc5)CC4)cc3)ccnc2cc1COCCN1CCN(CCNc2cccc3c2C(=O)N(C2CCC(=O)NC2=O)C3=O)CC1 (stereo not drawn) [TPD5316] | 75 to 85 | 500 to 1000 | 500 to 1000
12 | COc1cc2c(Oc3ccc(NC(=O)C4(C(=O)Nc5ccc(F)cc5)CC4)cc3)ccnc2cc1N1CCC(NC(=O)C2(C(=O)N[C@H](C(=O)N3C[C@H](O)C[C@H]3C(=O)NCc3ccc(-c4scnc4C)cc3)C(C)(C)C)CC2)CC1 [TPD5424] | 65 to 75 | 1000 to 3000 | 500 to 1000
13 | CNC(=O)c1ccc(-c2cnc3ncc(Cc4ccc5ncc(NC(=O)CN6CCC(CN7CCN(c8ccc9c(c8)C(=O)N(C8CCC(=O)NC8=O)C9=O)CC7)CC6)cc5c4)n3n2)cc1F (stereo not drawn) [TPD7026] | 65 to 75 | ≤ 100 | ≤ 100
14 | COc1cc2c(Oc3ccc(NC(=O)C4(C(=O)Nc5ccc(F)cc5)CC4)cc3)ccnc2cc1N1CCC(CN2CCN(CCNc3nccc4c3CN(C3CCC(=O)NC3=O)C4=O)CC2)CC1 (stereo not drawn) [TPD12001] | 65 to 75 | ≤ 100 | ≤ 100

Continued, values first:

Row | Dmax (DDR1) [%] | IC50 (MKN45) [nM] | IC50 (SNU5) [nM] | Structure (SMILES)
15 | > 85 | 500 to 1000 | ≤ 100 | COc1cc2c(Oc3ccc(NC(=O)C4(C(=O)Nc5ccc(F)cc5)CC4)cc3)ccnc2cc1N1CCC(CN2C[C@@H]3C[C@H]2CN3CC(=O)Nc2ccc3c(c2)CN(C2CCC(=O)NC2=O)C3=O)CC1 (stereo partly drawn) [TPD12216]
16 | > 85 | ≤ 100 | ≤ 100 | COc1cc2c(Oc3ccc(NC(=O)C4(C(=O)Nc5ccc(F)cc5)CC4)cc3)ccnc2cc1N1CCC(CN2CCN(CCNc3cccc4c3C(=O)N(C3CCC(=O)NC3=O)C4=O)CC2)CC1 (stereo not drawn) [TPD5972]
17 | 65 to 75 | 500 to 1000 | 100 to 500 | COc1cc2c(Oc3ccc(NC(=O)C4(C(=O)Nc5ccc(F)cc5)CC4)cc3)ccnc2cc1NCC(=O)N1CCC(CN2CCN(c3ccc(N(C)C4CCC(=O)NC4=O)nc3F)CC2)CC1 (stereo not drawn) [TPD5773]
18 | 65 to 75 | ≤ 100 | ≤ 100 | COc1cc2c(Oc3ccc(NC(=O)C4(C(=O)Nc5ccc(F)cc5)CC4)cc3)ccnc2cc1N1CCC(CN2C[C@@H]3C[C@H]2CN3CC(=O)Nc2cc3c(cn2)C(=O)N(C2CCC(=O)NC2=O)C3)CC1 (stereo partly drawn) [TPD12100]
19 | 75 to 85 | 1000 to 3000 | 500 to 1000 | COc1cc2c(Oc3ccc(NC(=O)C4(C(=O)Nc5ccc(F)cc5)CC4)cc3)ccnc2cc1N1CCC(C(=O)NCCCCC(=O)N[C@H](C(=O)N2C[C@H](O)C[C@H]2C(=O)NCc2ccc(-c3scnc3C)cc2)C(C)(C)C)CC1 [TPD5453]
20 | 65 to 75 | ≤ 100 | ≤ 100 | O=C1CCC(N2Cc3cc(NC(=O)CN4C[C@@H]5C[C@H]4CN5CC4CCN(c5cc6nccc(Oc7ccc(NC(=O)C8(C(=O)Nc9ccc(F)cc9)CC8)cc7)c6cc5F)CC4)ccc3C2=O)C(=O)N1 (stereo partly drawn) [TPD12205]
21 | 75 to 85 | 500 to 1000 | 100 to 500 | COc1cc2c(Oc3ccc(NC(=O)C4(C(=O)Nc5ccc(F)cc5)CC4)cc3)ccnc2cc1NC(=O)CN1CCC(CN2CCN(c3ccc4c(c3)C(=O)N(C3CCC(=O)NC3=O)C4=O)CC2)CC1 (stereo not drawn) [TPD5735]
